Reference: paper PMC9476189 (ACS Omega, 2022)

Assays:
urease = urease (Canavalia ensiformis, UniProt P07374); details: mean ± SEM, triplicate; for IC50: read-out: urease inhibition, IC50
AChE = AChE (Homo sapiens, UniProt P22303); details: for AChE inhibition, inhibition (%) at 0.5 mM / IC50: mean ± SEM, triplicate; for IC50: read-out: AChE inhibition, IC50
α-glucosidase = α-glucosidase (Saccharomyces cerevisiae, UniProt P53341); experiment: α-Glucosidase assay; format: biochemical; details: for α-glucosidase inhibition, inhibition (%) at 0.5 mM / IC50: mean ± SEM, triplicate; for IC50: read-out: α-glucosidase inhibition, IC50
Sequence of α-glucosidase (P53341 whole entry): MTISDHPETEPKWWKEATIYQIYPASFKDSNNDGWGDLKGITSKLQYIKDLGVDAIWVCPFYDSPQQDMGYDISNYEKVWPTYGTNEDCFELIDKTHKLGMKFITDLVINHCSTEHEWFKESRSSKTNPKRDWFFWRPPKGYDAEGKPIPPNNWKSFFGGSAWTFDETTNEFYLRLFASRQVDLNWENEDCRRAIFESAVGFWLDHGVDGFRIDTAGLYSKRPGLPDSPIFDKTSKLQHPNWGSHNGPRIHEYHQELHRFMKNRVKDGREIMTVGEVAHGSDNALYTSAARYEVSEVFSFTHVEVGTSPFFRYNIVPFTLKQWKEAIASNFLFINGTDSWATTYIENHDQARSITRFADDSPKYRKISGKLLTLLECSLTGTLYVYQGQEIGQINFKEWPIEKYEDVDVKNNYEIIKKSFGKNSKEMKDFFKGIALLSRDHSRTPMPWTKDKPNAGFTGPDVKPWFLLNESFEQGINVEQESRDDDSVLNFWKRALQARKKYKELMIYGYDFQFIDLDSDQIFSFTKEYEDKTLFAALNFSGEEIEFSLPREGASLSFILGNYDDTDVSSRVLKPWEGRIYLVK

LOX = biological target: T1, LOX (Glycine max, UniProt P08170); experiment: Lipoxygenase assay; format: biochemical; details: mean ± SEM, triplicate; for IC50: read-out: LOX inhibition, IC50
T1 sequence (P08170 1-839): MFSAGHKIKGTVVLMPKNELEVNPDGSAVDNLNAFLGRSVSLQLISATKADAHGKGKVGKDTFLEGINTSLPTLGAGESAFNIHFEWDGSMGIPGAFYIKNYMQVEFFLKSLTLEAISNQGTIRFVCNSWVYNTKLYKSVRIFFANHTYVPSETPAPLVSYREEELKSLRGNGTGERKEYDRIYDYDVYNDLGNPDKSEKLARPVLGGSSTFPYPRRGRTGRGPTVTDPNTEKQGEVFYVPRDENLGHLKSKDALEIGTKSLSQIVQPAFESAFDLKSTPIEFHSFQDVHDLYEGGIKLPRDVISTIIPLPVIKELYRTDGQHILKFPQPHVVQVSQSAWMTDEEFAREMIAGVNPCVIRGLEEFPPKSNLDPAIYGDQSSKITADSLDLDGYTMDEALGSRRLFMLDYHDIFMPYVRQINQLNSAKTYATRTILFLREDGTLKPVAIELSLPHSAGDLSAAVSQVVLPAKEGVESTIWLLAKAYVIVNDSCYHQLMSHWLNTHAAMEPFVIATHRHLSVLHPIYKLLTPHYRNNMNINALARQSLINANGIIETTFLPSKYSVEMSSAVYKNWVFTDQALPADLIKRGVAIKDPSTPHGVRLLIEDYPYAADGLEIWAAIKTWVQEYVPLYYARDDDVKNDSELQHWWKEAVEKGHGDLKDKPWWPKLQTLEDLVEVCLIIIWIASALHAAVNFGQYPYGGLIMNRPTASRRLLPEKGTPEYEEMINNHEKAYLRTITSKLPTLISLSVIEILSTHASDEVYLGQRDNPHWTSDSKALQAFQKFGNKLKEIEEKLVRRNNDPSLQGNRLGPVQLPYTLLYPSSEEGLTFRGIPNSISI

BChE = BChE (Homo sapiens, UniProt P06276); details: mean ± SEM, triplicate; for IC50: read-out: BChE inhibition, IC50
Sequence of BChE (P06276 29-602, species assumed): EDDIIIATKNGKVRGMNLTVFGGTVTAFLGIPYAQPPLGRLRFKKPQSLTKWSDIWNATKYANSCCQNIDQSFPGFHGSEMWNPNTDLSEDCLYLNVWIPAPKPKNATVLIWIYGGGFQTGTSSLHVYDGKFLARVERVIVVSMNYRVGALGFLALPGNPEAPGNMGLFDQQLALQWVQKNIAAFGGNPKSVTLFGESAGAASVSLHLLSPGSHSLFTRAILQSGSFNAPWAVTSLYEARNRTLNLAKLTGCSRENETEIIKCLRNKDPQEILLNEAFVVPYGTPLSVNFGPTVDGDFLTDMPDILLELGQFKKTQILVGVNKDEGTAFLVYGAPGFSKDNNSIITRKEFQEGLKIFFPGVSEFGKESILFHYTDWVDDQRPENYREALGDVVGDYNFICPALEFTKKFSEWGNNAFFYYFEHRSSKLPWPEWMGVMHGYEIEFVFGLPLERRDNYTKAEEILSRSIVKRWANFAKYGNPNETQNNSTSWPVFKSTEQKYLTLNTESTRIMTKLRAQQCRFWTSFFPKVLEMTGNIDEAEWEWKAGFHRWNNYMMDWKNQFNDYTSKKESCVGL

Sequence of urease (P07374 whole entry, looked up): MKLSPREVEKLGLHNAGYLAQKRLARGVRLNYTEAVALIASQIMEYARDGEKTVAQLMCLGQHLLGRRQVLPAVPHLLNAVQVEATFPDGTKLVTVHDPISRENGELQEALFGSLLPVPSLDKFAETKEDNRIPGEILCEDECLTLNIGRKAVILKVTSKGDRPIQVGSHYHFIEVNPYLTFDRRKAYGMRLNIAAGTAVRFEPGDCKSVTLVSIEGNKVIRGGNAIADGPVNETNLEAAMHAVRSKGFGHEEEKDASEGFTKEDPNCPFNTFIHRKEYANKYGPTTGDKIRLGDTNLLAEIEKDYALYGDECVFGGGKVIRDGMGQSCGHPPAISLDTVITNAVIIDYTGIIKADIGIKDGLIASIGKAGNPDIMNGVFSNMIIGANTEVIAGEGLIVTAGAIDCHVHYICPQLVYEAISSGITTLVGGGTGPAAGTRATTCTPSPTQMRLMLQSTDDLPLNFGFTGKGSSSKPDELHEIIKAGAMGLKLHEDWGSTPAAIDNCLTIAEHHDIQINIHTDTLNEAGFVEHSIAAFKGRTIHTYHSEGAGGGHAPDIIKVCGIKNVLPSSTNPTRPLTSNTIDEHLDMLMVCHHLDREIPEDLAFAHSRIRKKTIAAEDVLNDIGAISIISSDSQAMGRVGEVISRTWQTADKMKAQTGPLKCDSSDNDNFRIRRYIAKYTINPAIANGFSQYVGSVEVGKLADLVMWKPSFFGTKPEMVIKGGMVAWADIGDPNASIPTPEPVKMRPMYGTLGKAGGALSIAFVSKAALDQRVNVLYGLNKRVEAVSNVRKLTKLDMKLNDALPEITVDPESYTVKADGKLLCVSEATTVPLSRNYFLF
Sequence of AChE (P22303 32-614): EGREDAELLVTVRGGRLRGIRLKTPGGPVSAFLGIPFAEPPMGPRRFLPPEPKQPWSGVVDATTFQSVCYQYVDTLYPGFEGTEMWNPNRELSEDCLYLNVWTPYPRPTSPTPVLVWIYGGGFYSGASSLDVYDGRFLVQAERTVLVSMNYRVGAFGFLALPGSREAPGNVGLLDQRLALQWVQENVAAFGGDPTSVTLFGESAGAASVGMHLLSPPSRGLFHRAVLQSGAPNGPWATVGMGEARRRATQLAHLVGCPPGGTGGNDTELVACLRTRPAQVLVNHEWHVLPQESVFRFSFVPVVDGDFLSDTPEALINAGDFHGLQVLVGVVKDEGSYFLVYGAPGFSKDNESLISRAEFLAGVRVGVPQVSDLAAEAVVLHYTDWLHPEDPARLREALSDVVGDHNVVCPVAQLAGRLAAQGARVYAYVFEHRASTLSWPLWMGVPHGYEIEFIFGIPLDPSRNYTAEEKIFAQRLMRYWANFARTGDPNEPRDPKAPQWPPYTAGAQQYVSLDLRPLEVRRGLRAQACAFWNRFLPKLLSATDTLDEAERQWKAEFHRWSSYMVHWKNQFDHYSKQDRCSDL

Row | Structure (SMILES) | urease inhibition, inhibition (%) at 0.25 mM (urease) [%] | AChE inhibition, inhibition (%) at 0.5 mM (AChE) [%] | IC50 (AChE) [µM] | α-glucosidase inhibition, inhibition (%) at 0.5 mM (α-glucosidase) [%] | IC50 (α-glucosidase) [µM] | LOX inhibition, inhibition (%) at 0.25 mM (LOX) [%] | BChE inhibition, inhibition (%) at 0.5 mM (BChE) [%] | activity against AChE enzyme (in words) (AChE) | IC50 (BChE) [µM] | IC50 (urease) [µM] | activity against α-glucosidase enzyme (in words) (α-glucosidase) | IC50 (LOX) [µM]
1 | Cc1ccc(S(=O)(=O)N2CCC(c3nnc(SCC(=O)NC4CCCCC4)n3C)CC2)cc1 [Compound 12a, 1-(4-toluenesulfonyl)-4-[3-(N-cyclohexyl-2-ethanamoylthio)-4-methyl-4H-1,2,4-triazol-5-yl] piperidine] | 25.34 ± 1.42 | 52.37 ± 0.78 | 476.3 ± 0.57 | 87.25 ± 1.65 | 135 ± 1.39 | 39.47 ± 0.82 | 21.93 ± 0.62 | – | – | – | – | –
2 | Cc1ccc(S(=O)(=O)N2CCC(c3nnc(SCC(=O)Nc4ccccc4)n3C)CC2)cc1 [Compound 12b, 1-(4-toluenesulfonyl)-4-[3-(N-phenyl-2-ethanamoylthio)-4-methyl-4H-1,2,4-triazol-5-yl] piperidine] | 31.23 ± 1.42 | 89.15 ± 0.68 | 85.46 ± 0.45 | 76.23 ± 1.58 | 264.3 ± 1.24 | 35.25 ± 0.42 | 63.42 ± 0.75 | excellent activity | 279.4 ± 0.59 | – | – | –
3 | Cc1ccc(S(=O)(=O)N2CCC(c3nnc(SCC(=O)Nc4ccccc4C)n3C)CC2)cc1 [Compound 12c, 1-(4-toluenesulfonyl)-4-{3-[N-(2-methylphenyl)-2-ethanamoylthio]-4-methyl-4H-1,2,4-triazol-5-yl} piperidine] | 75.45 ± 1.72 | 82.36 ± 0.67 | 134.6 ± 0.53 | 72.45 ± 1.75 | 327.8 ± 1.57 | 36.47 ± 0.76 | 37.83 ± 0.42 | – | – | 163.8 ± 1.45 | – | –
4 | Cc1ccc(S(=O)(=O)N2CCC(c3nnc(SCC(=O)Nc4cccc(C)c4)n3C)CC2)cc1 [Compound 12d, 1-(4-Toluenesulfonyl)-4-{3-[N-(3-methylphenyl)-2-ethanamoylthio]-4-methyl-4H-1,2,4-triazol-5-yl}{Kumari, 2021 #63} piperidine] | 98.22 ± 1.65 | 98.78 ± 0.78 | 0.73 ± 0.54 | 91.52 ± 1.43 | 36.7 ± 1.24 | 68.34 ± 0.82 | 95.29 ± 0.74 | excellent activity | – | 19.4 ± 1.28 | excellent activity | 32.6 ± 0.42
5 | Cc1ccc(NC(=O)CSc2nnc(C3CCN(S(=O)(=O)c4ccc(C)cc4)CC3)n2C)cc1 [Compound 12e, 1-(4-toluenesulfonyl)-4-{3-[N-(4-methylphenyl)-2-ethanamoylthio]-4-methyl-4H-1,2,4-triazol-5-yl} piperidine] | 39.26 ± 1.43 | 87.43 ± 0.77 | 97.86 ± 0.65 | 72.75 ± 1.58 | 314.6 ± 1.24 | 48.36 ± 0.43 | 96.47 ± 0.76 | excellent activity | 0.053 | – | – | –
6 | CCc1ccccc1NC(=O)CSc1nnc(C2CCN(S(=O)(=O)c3ccc(C)cc3)CC2)n1C [Compound 12f, 1-(4-toluenesulfonyl)-4-{3-[N-(2-ethylphenyl)-2-ethanamoylthio]-4-methyl-4H-1,2,4-triazol-5-yl} piperidine] | 36.35 ± 1.78 | 39.62 ± 0.55 | – | 74.95 ± 1.74 | 275.8 ± 1.37 | 62.38 ± 0.75 | 39.78 ± 0.57 | – | – | – | – | 96.32 ± 0.37
